# Measurements taken from patent publication EP0514268A1, “Substituted amino acid azetidinyl pyridone derivatives, their preparation and use as medicines” (LABORATORIOS DEL DR. ESTEVE, S.A., priority 1991, dated 1992).
# Key:
# [1] = Solubility in water and at pH 7.4; assay type: physicochemical
# Description: Un grand nombre des composés de l'invention manifestent une augmentation de la solubilité dans l'eau ainsi que de la solubilité à pH 7,4 lorsqu'on compare avec les composés de référence. L'augmentation de solubilité au pH physiologique peut favoriser l'absorption du produit et la solubilité élevée dans l'eau permet l'administration du composé par voie parentérale.
# [2] = system: Strep. faecalis ATCC 10541; test: Antimicrobial activity, agar dilution; assay type: cell-based, Streptococcus faecalis; details: Enterococcus faecalis, ATCC10541, 20 h, Agar Dextrose dilutions, 37°C, 20 heures, read-out: Activité pharmacologique antimicrobienne (concentrations)
# Description: (§1) L'activité pharmacologique antimicrobienne de ces composés a été étudiée selon les références exposées ci-dessous.
# (§2) Activité pharmacologique antimicrobienne : G.L. Daquet et Y.A. Chabbect, techniques en bactériologie, Vol. 3, Flammarion Médecine-Sciences, Paris 1972, et W.B. Hugo et A.D. Rusell, Pharmaceutical Microbiology, Blackwell Scientific Publications, London, 1977.
# (§3) Milieu de culture et solvant : Agar d'antibiotiques n° 1 (Oxoid CM 327) Bouillon de triptone-soja (Oxoid CM 129) Solution Physiologique Ringer 1/4 (Oxoid BR 52) Agar Dextrose (BBL 11165)
# (§4) Microorganismes : "Bacillus subtilis" ATCC 6633 "Citrobacter freundii" ATCC 112606 "Enterobacter aerogenes" ATCC 15038 "Enterobacter cloacae" ATCC 23355 "Bacillus cereus" ATCC 1178 "Escherichia coli" ATCC 10799 "Escherichia coli" ATCC 23559 "Klebsiella pneumoniae" ATCC 10031 "Proteus vulgaris" ATCC 8427 "Morg. morganii" ATCC 8019 "Pseudomonas aeruginosa" ATCC 9721 "Pseudomonas aeruginosa" ATCC 10145 "Salmonella typhimurium" ATCC 14028 "Salmonella typhimurium" ATCC 6539 "Serratia marcescens" ATCC 13880 "Shigella flexnerii" ATCC 12022 "Staphylococcusepidermis" ATCC 155-1 "Staphylococcus aureus" ATCC 25178 "Streptococcus faecalis" ATCC 10541.
# (§5) Chacun des microorganismes est ensemencé par strie dans des tubes d'Agar d'antibiotiques n° 1, et mis en incubation pendant 20 heures à 37°C. Ensuite, on prend une anse de culture, on ensemence dans un bouillon de Triptone-soja et on incube pendant 20 heures à 37°C. On dilue à 1/4 la culture obtenue avec une solution physiologique Ringer, de façon à obtenir une suspension normalisée de […] pour chaque organisme.
# (§6) A partir d'une solution de 100 µg/ml, chaque produit est dilué dans l'Agar Dextrose (préalablement fondu et maintenu à 50°C) par dilutions successives de façon à obtenir les concentrations suivantes : 64-32-16-8-4-2-1-0,5-0,25-0,125 µg de dérivé/ml du milieu.
# (§7) Postérieurement, chaque concentration de chaque produit est répartie dans des boîtes de Petri de 10 cm de diamètre, à raison de 10 ml de milieu par boîte et autant de boîtes que de microorganismes à tester.
# (§8) Une fois le milieu refroidi, les boîtes sont ensemencées avec les inoculations à raison de 0,4 ml d'inoculation par boîte. On les étend avec une anse de Driglasky et on recueille le surnageant. Les boîtes ensemencées sont incubées à 37°C pendant 20 heures.
# (§9) Les résultats obtenus sont décrits dans les tableaux suivants. Les concentrations sont données en µg/ml.
# [3] = system: Staph. aureus ATCC 25178; test: Antimicrobial activity, agar dilution; assay type: cell-based, Staphylococcus aureus; details: Staphylococcus aureus, ATCC25178, 20 h, Agar Dextrose dilutions, 37°C, 20 heures, read-out: Activité pharmacologique antimicrobienne (concentrations)
# Description: as §1, §2, §3, §4, §5, §6, §7, §8, §9
# [4] = system: Citr. freundii ATCC 11606; test: Antimicrobial activity, agar dilution; assay type: cell-based, Citrobacter freundii; details: Citrobacter freundii, ATCC11606, 20 h, Agar Dextrose dilutions, 37°C, 20 heures, read-out: Activité pharmacologique antimicrobienne (concentrations)
# Description: as §1, §2, §3, §4, §5, §6, §7, §8, §9
# [5] = system: Bacillus cereus ATCC 11778; test: Antimicrobial activity, agar dilution; assay type: cell-based; details: Bacillus cereus, ATCC11778, 20 h, Agar Dextrose dilutions, 37°C, 20 heures, read-out: Activité pharmacologique antimicrobienne (concentrations)
# Description: as §1, §2, §3, §4, §5, §6, §7, §8, §9
# [6] = system: Bacillus subtilis ATCC 6633; test: Antimicrobial activity, agar dilution; assay type: cell-based; details: ATCC6633, 20 h, Agar Dextrose dilutions, 37°C, 20 heures, read-out: Activité pharmacologique antimicrobienne (concentrations)
# Description: as §1, §2, §3, §4, §5, §6, §7, §8, §9
# [7] = system: Escherichia coli ATCC 10799; test: Antimicrobial activity, agar dilution; assay type: cell-based; details: Escherichia coli, ATCC10799, 20 h, Agar Dextrose dilutions, 37°C, 20 heures, read-out: Activité pharmacologique antimicrobienne (concentrations)
# Description: as §1, §2, §3, §4, §5, §6, §7, §8, §9
# [8] = system: Escherichia coli ATCC 23559; test: Antimicrobial activity, agar dilution; assay type: cell-based; details: Escherichia coli, ATCC23559, 20 h, Agar Dextrose dilutions, 37°C, 20 heures, read-out: Activité pharmacologique antimicrobienne (concentrations)
# Description: as §1, §2, §3, §4, §5, §6, §7, §8, §9
# [9] = system: Morg. morganii ATCC 8019; test: Antimicrobial activity, agar dilution; assay type: cell-based; details: Morganella morganii, ATCC8019, 20 h, Agar Dextrose dilutions, 37°C, 20 heures, read-out: Activité pharmacologique antimicrobienne (concentrations)
# Description: as §1, §2, §3, §4, §5, §6, §7, §8, §9
# [10] = system: Proteus vulgaris ATCC 8427; test: Antimicrobial activity, agar dilution; assay type: cell-based; details: Proteus vulgaris, ATCC8427, 20 h, Agar Dextrose dilutions, 37°C, 20 heures, read-out: Activité pharmacologique antimicrobienne (concentrations)
# Description: as §1, §2, §3, §4, §5, §6, §7, §8, §9
# [11] = system: Ps. aeruginosa ATCC 10145; test: Antimicrobial activity, agar dilution; assay type: cell-based; details: Pseudomonas aeruginosa, ATCC10145, 20 h, Agar Dextrose dilutions, 37°C, 20 heures, read-out: Activité pharmacologique antimicrobienne (concentrations)
# Description: as §1, §2, §3, §4, §5, §6, §7, §8, §9
# [12] = system: Ps. aeruginosa ATCC 9721; test: Antimicrobial activity, agar dilution; assay type: cell-based; details: Pseudomonas aeruginosa, ATCC9721, 20 h, Agar Dextrose dilutions, 37°C, 20 heures, read-out: Activité pharmacologique antimicrobienne (concentrations)
# Description: as §1, §2, §3, §4, §5, §6, §7, §8, §9
# [13] = system: Sal. typhi ATCC 6539; test: Antimicrobial activity, agar dilution; assay type: cell-based; details: Salmonella enterica, 20 h, read-out: Activité pharmacologique antimicrobienne (concentrations)
# Description: as §1, §2, §3, §4, §5, §6, §7, §8, §9
# [14] = system: Shigella flexnerii ATCC 12022; test: Antimicrobial activity, agar dilution; assay type: cell-based; details: ATCC12022, 20 h, Agar Dextrose dilutions, 37°C, 20 heures, read-out: Activité pharmacologique antimicrobienne (concentrations)
# Description: as §1, §2, §3, §4, §5, §6, §7, §8, §9
# [15] = system: Staph. epidermidis ATCC 155-1; test: Antimicrobial activity, agar dilution; assay type: cell-based; details: Staphylococcus epidermidis, ATCC155, 20 h, Agar Dextrose dilutions, 37°C, 20 heures, read-out: Activité pharmacologique antimicrobienne (concentrations)
# Description: as §1, §2, §3, §4, §5, §6, §7, §8, §9
# [16] = system: Kleb. pneumoniae ATCC 10031; test: Antimicrobial activity, agar dilution; assay type: cell-based, Klebsiella pneumoniae; details: Klebsiella pneumoniae, ATCC10031, 20 h, Agar Dextrose dilutions, 37°C, 20 heures, read-out: Activité pharmacologique antimicrobienne (concentrations)
# Description: as §1, §2, §3, §4, §5, §6, §7, §8, §9
# [17] = system: Sal. typhimurium ATCC 14028; test: Antimicrobial activity, agar dilution; assay type: cell-based, Salmonella typhimurium; details: Salmonella enterica, 20 h, Agar Dextrose dilutions, 37°C, 20 heures, read-out: Activité pharmacologique antimicrobienne (concentrations)
# Description: as §1, §2, §3, §4, §5, §6, §7, §8, §9
# [18] = system: Ent. aerogenes ATCC 15038; test: Antimicrobial activity, agar dilution; assay type: cell-based, Enterobacter aerogenes; details: Klebsiella aerogenes, ATCC15038, 20 h, Agar Dextrose dilutions, 37°C, 20 heures, read-out: Activité pharmacologique antimicrobienne (concentrations)
# Description: as §1, §2, §3, §4, §5, §6, §7, §8, §9
# [19] = system: Ent. cloacae ATCC 23355; test: Antimicrobial activity, agar dilution; assay type: cell-based, Enterobacter cloacae; details: Enterobacter cloacae, ATCC23355, 20 h, Agar Dextrose dilutions, 37°C, 20 heures, read-out: Activité pharmacologique antimicrobienne (concentrations)
# Description: as §1, §2, §3, §4, §5, §6, §7, §8, §9
# [20] = system: Serr. marcescens ATCC 13880; test: Antimicrobial activity, agar dilution; assay type: cell-based, Serratia marcescens; details: Serratia marcescens, ATCC13880, 20 h, Agar Dextrose dilutions, 37°C, 20 heures, read-out: Activité pharmacologique antimicrobienne (concentrations)
# Description: as §1, §2, §3, §4, §5, §6, §7, §8, §9
SMILES,solubility ([1]; pH 7),solubility ([1]; water),MIC [2],MIC [3],MIC [4],MIC [5],MIC [6],MIC [7],MIC [8],MIC [9],MIC [10],MIC [11],MIC [12],MIC [13],MIC [14],MIC [15],MIC [16],MIC [17],MIC [18],MIC [19],further results
"C[C@H](N)C(=O)NC1CN(c2nc3c(cc2F)c(=O)c(C(=O)O)cn3-c2ccc(F)cc2F)C1 [Exemple 4bA, chlorhydratede l'acide 7-(3-Ala-amino-1-azétidinyl)-1-(2,4-difluorophényl)-6-fluoro-1,4-dihydro-4-oxo-1,8-naphtyridine-3-carboxylique]",66.9 µg/mL,128 µg/mL,8 µg/mL,1 µg/mL,1 µg/mL,4 µg/mL,0.5 µg/mL,2 µg/mL,1 µg/mL,2 µg/mL,8 µg/mL,16 µg/mL,8 µg/mL,1 µg/mL,1 µg/mL,4 µg/mL,1 µg/mL,2 µg/mL,1 µg/mL,1 µg/mL,MIC [20]: 8 µg/mL
NCC(=O)NC1CN(c2nc3c(cc2F)c(=O)c(C(=O)O)cn3-c2ccc(F)cc2F)C1 [Exemple 4bG],7.6 µg/mL,> 500 µg/mL,16 µg/mL,1 µg/mL,1 µg/mL,1 µg/mL,1 µg/mL,2 µg/mL,0.5 µg/mL,4 µg/mL,8 µg/mL,> 32 µg/mL,16 µg/mL,1 µg/mL,0.5 µg/mL,2 µg/mL,1 µg/mL,4 µg/mL,1 µg/mL,1 µg/mL,MIC [20]: 16 µg/mL
"CC(C)C[C@H](N)C(=O)NC1CN(c2nc3c(cc2F)c(=O)c(C(=O)O)cn3-c2ccc(F)cc2F)C1 [Exemple 4bL, chlorhydratede l'acide 7-(3-Leu-amino-1-azétidinyl)-1-(2,4-difluorophényl)-6-fluoro-1,4-dihydro-4-oxo-1,8-naphtyridine-3-carboxylique]",23.1 µg/mL,> 500 µg/mL,1 µg/mL,4 µg/mL,1 µg/mL,0.5 µg/mL,0.25 µg/mL,1 µg/mL,0.25 µg/mL,2 µg/mL,2 µg/mL,8 µg/mL,4 µg/mL,1 µg/mL,0.25 µg/mL,1 µg/mL,0.12 µg/mL,1 µg/mL,0.5 µg/mL,0.5 µg/mL,MIC [20]: 2 µg/mL
C[C@H](N)C(=O)N[C@@H]1CN(c2cc3c(cc2F)c(=O)c(C(=O)O)cn3-c2ccc(F)cc2F)[C@H]1C [Exemple 4eA],> 500 µg/mL,> 500 µg/mL,8 µg/mL,1 µg/mL,2 µg/mL,1 µg/mL,0.5 µg/mL,2 µg/mL,1 µg/mL,4 µg/mL,16 µg/mL,8 µg/mL,8 µg/mL,2 µg/mL,0.5 µg/mL,16 µg/mL,2 µg/mL,2 µg/mL,2 µg/mL,2 µg/mL,MIC [20]: 8 µg/mL
